The experiment deals with T1, human LPA1 (Homo sapiens, UniProt Q92633).
T1 construct: the full-length cDNA for human LPA1 was obtained by PCR of the reverse transcription reaction; expressed in transfected cells
Kind of experiment: LPA1 calcium flux assay. Format: cell-based. Particulars: CHO cells expressing human LPA1, stimulated with 10 nM LPA; read-out: HLPA1 Ca Flux IC50. The essentials: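 Antagonism measured as block of 10 nM LPA-evoked calcium rise in stable human LPA1-CHO cells. After overnight serum-free culture and 1 h dye loading at 37 °C (buffer with 0.3% fatty-acid-free albumin), compound was added for 30 min at room temperature. Titration curves gave IC50.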
(In general: A change in cytosolic calcium serves as a functional read-out for many receptors and channels.)

T1 sequence (Q92633 whole entry): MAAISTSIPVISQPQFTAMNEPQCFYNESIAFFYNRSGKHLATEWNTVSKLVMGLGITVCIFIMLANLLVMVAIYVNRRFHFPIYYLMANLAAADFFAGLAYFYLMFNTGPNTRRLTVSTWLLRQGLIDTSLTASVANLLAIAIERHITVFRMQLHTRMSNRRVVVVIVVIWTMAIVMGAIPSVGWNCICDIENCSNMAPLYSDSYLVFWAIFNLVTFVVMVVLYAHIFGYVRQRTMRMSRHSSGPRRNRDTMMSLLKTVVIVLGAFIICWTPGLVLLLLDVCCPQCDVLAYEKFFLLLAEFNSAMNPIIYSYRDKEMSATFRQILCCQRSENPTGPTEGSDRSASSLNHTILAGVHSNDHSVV

As for `Cc1noc(-c2ccc(-c3ccc(C4(C(=O)O)CC4)cc3)cc2)c1Nc1ccc2ccccc2n1` [Compound 1-280, 1-{4′-[3-Methyl-4-(quinolin-2-ylamino)-isoxazol-5-yl]-biphenyl-4-yl}-cyclopropanecarboxylic acid], the IC50 (in general, the concentration needed to halve the response being measured) was below 300 nM.
Take `Cc1noc(-c2ccc(-c3ccc(C4(C(=O)O)CC4)cc3)cc2)c1NC(C)c1cc2ccccc2s1` (stereo not drawn) [Compound 1-284, 1-{4′-[4-(1-Benzo[b]thiophen-2-yl-ethylamino)-3-methyl-isoxazol-5-yl]-biphenyl-4-yl}-cyclopropanecarboxylic acid]: the IC50 is below 300 nM.
Take `Cc1noc(-c2ccc(-c3ccc(C4(CC(=O)O)CC4)cc3)cc2)c1NC(C)c1cc2ccccc2s1` (stereo not drawn) [Compound 1-286, (1-{4′-[4-(1-Benzo[b]thiophen-2-yl-ethylamino)-3-methyl-isoxazol-5-yl]-biphenyl-4-yl}-cyclopropyl)-acetic acid]: the IC50 was below 300 nM.
As to `Cc1noc(-c2ccc(-c3ccc(C4(CC(=O)O)CC4)cc3)cc2)c1NC(C)CC(C)(C)c1ccccc1` (stereo not drawn) [Compound 1-287, (1-{4′-[4-(1,3-Dimethyl-3-phenyl-butylamino)-3-methyl-isoxazol-5-yl]-biphenyl-4-yl}-cyclopropyl)-acetic acid], the IC50 is below 300 nM.
As to `Cc1noc(-c2ccc(-c3ccc(C4(C(=O)O)CC4)cc3)cc2)c1NC(C)/C=C/c1ccccc1` (stereo not drawn) [Compound 1-288, 1-{4′-[3-Methyl-4-((E)-1-methyl-3-phenyl-allylamino)-isoxazol-5-yl]-biphenyl-4-yl}-cyclopropanecarboxylic acid], the IC50 was below 300 nM.
To `Cc1noc(-c2ccc(-c3ccc(C4(C(=O)O)CC4)cc3)cc2)c1Nc1cccnc1` [Compound 1-290, 1-{4′-[3-Methyl-4-(pyridin-3-ylamino)-isoxazol-5-yl]-biphenyl-4-yl}-cyclopropanecarboxylic acid] belongs 1000 to 50000 nM; to `COc1cncc(Nc2c(C)noc2-c2ccc(-c3ccc(C4(C(=O)O)CC4)cc3)cc2)c1` [Compound 1-291, 1-{4′-[4-(5-Methoxy-pyridin-3-ylamino)-3-methyl-isoxazol-5-yl]-biphenyl-4-yl}-cyclopropanecarboxylic acid], below 300 nM.
`Cc1noc(-c2ccc(-c3ccc(C4(C(=O)O)CC4)cc3)cc2)c1NC(=O)c1cccc(Br)c1` [Compound 1-292, 1-{4′-[4-(3-Bromo-benzoylamino)-3-methyl-isoxazol-5-yl]-biphenyl-4-yl}-cyclopropanecarboxylic acid]: the IC50 was in the range of 300 to 1000 nM.
Under `CCCOc1cccc(Nc2c(C)noc2-c2ccc(-c3ccc(C4(C(=O)O)CC4)cc3)cc2)n1` [Compound 1-293, 1-{4′-[3-Methyl-4-(6-propoxy-pyridin-2-ylamino)-isoxazol-5-yl]-biphenyl-4-yl}-cyclopropanecarboxylic acid] stands below 300 nM.
In the case of `CCOc1cccc(Nc2c(C)noc2-c2ccc(-c3ccc(C4(C(=O)O)CC4)cc3)cc2)n1` [Compound 1-294, 1-{4′-[4-(6-Ethoxy-pyridin-2-ylamino)-3-methyl-isoxazol-5-yl]-biphenyl-4-yl}-cyclopropanecarboxylic acid], the IC50 is below 300 nM.
Under `CCCCOc1cccc(Nc2c(C)noc2-c2ccc(-c3ccc(C4(C(=O)O)CC4)cc3)cc2)n1` [Compound 1-295, 1-{4′-[4-(6-Butoxy-pyridin-2-ylamino)-3-methyl-isoxazol-5-yl]-biphenyl-4-yl}-cyclopropanecarboxylic acid] stands below 300 nM; under `Cc1noc(-c2ccc(-c3ccc(C4(C(=O)O)CC4)cc3)cc2)c1Nc1ccccn1` [Compound 1-296, 1-{4′-[3-Methyl-4-(pyridin-2-ylamino)-isoxazol-5-yl]-biphenyl-4-yl}-cyclopropanecarboxylic acid], above 50000 nM; under `Cc1noc(-c2ccc(-c3ccc(C4(C(=O)O)CC4)cc3)cc2)c1Nc1cccc(OC(C)C)n1` [Compound 1-297, 1-{4′-[4-(6-Isopropoxy-pyridin-2-ylamino)-3-methyl-isoxazol-5-yl]-biphenyl-4-yl}-cyclopropanecarboxylic acid], below 300 nM.
Under `Cc1noc(-c2ccc(-c3ccc(C4(C(=O)O)CC4)cc3)cc2)c1Nc1cccc(C(=O)O)n1` [Compound 1-298, 6-{5-[4′-(1-Carboxy-cyclopropyl)-biphenyl-4-yl]-3-methyl-isoxazol-4-ylamino}-pyridine-2-carboxylic acid] stands 1000 to 50000 nM.
To `Cc1noc(-c2ccc(-c3ccc(C4(C(=O)O)CC4)cc3)cc2)c1Nc1cccc(C(=O)NCCN(C)C)n1` [Compound 1-299, 1-(4′-{4-[6-(2-Dimethylamino-ethylcarbamoyl)-pyridin-2-ylamino]-3-methyl-isoxazol-5-yl}-biphenyl-4-yl)-cyclopropanecarboxylic acid] belongs 1000 to 50000 nM; to `Cc1noc(-c2ccc(-c3ccc(C4(C(=O)O)CC4)cc3)cc2)c1Nc1cccc(C(=O)NCC(C)(C)C)n1` [Compound 1-300, 1-(4′-{4-[6-(2,2-Dimethyl-propylcarbamoyl)-pyridin-2-ylamino]-3-methyl-isoxazol-5-yl}-biphenyl-4-yl)-cyclopropanecarboxylic acid], below 300 nM.
In the case of `Cc1noc(-c2ccc(-c3ccc(C4(C(=O)O)CC4)cc3)cc2)c1Nc1cccc(OC(C)(C)C)n1` [Compound 1-301, 1-{4′-[4-(6-tert-Butoxy-pyridin-2-ylamino)-3-methyl-isoxazol-5-yl]-biphenyl-4-yl}-cyclopropanecarboxylic acid], the IC50 is below 300 nM.
Consider `Cc1noc(-c2ccc(-c3ccc(C4(C(=O)O)CC4)cc3)cc2)c1Nc1cccc(O)n1` [Compound 1-302, 1-{4′-[4-(6-Hydroxy-pyridin-2-ylamino)-3-methyl-isoxazol-5-yl]-biphenyl-4-yl}-cyclopropanecarboxylic acid], for which the half-maximal inhibitory concentration (IC50) was 1000 to 50000 nM.
Under `CCCCCCCCCCCCOc1cccc(Nc2c(C)noc2-c2ccc(-c3ccc(C4(C(=O)O)CC4)cc3)cc2)n1` [Compound 1-303, 1-{4′-[4-(6-Dodecyloxy-pyridin-2-ylamino)-3-methyl-isoxazol-5-yl]-biphenyl-4-yl}-cyclopropanecarboxylic acid] stands 1000 to 50000 nM.
As for `COc1cccc(Nc2c(C)noc2-c2ccc(-c3ccc(C4(C(=O)O)CC4)cc3)cc2)n1` [Compound 1-304, 1-{4′-[4-(6-Methoxy-pyridin-2-ylamino)-3-methyl-isoxazol-5-yl]-biphenyl-4-yl}-cyclopropanecarboxylic acid], the IC50 is below 300 nM.
Turning to `Cc1noc(-c2ccc(-c3cccc(C(=O)O)c3)cc2)c1CNC(=O)OCc1ccccc1` [Compound 1-305, 4′-[4-(Benzyloxycarbonylamino-methyl)-3-methyl-isoxazol-5-yl]-biphenyl-3-carboxylic acid], the IC50 lay within 1000 to 50000 nM.
As to `Cc1onc(-c2ccc(-c3ccc(C4(CC(=O)O)CC4)cc3)cc2)c1CSCCc1ccccc1` [Compound 1-306, {1-[4′-(5-Methyl-4-phenethylsulfanylmethyl-isoxazol-3-yl)-biphenyl-4-yl]-cyclopropyl}-acetic acid], the IC50 was below 300 nM.
`Cc1noc(-c2ccc(-c3ccc(C#CC(=O)O)cc3)cc2)c1N[C@@H](C)CCc1cccc(C(F)(F)F)c1` [Compound 1-307, (4′-{3-Methyl-4-[(S)-1-methyl-3-(3-trifluoromethyl-phenyl)-propylamino]-isoxazol-5-yl}-biphenyl-4-yl)-propynoic acid]: the IC50 lay within 300 to 1000 nM.
As to `Cc1noc(-c2ccc(-c3ccc(C4(C(=O)O)CC4)cc3)cc2)c1NC(=O)Nc1cccc(Br)c1` [Compound 1-308, 1-(4′-{4-[3-(3-Bromo-phenyl)-ureido]-3-methyl-isoxazol-5-yl}-biphenyl-4-yl)-cyclopropanecarboxylic acid], the IC50 is below 300 nM.
On to `Cc1noc(-c2ccc(-c3ccc(C4(C(=O)O)CC4)cc3)cc2)c1Nc1cccc(OC(C)C)[n+]1[O-]` [Compound 1-309, 1-{4′-[4-(6-Isopropoxy-1-oxy-pyridin-2-ylamino)-3-methyl-isoxazol-5-yl]-biphenyl-4-yl}-cyclopropanecarboxylic acid], for which the IC50 was in the range of 1000 to 50000 nM.
On to `Cc1noc(-c2ccc(-c3ccc(C4(C(=O)O)CC4)cc3)cc2)c1Nc1cncc(OC(C)C)c1` [Compound 1-310, 1-{4′-[4-(5-Isopropoxy-pyridin-3-ylamino)-3-methyl-isoxazol-5-yl]-biphenyl-4-yl}-cyclopropanecarboxylic acid], for which the IC50 is below 300 nM.
To `CC(=O)c1cccc(Nc2c(C)noc2-c2ccc(-c3ccc(C4(C(=O)O)CC4)cc3)cc2)n1` [Compound 1-311, 1-{4′-[4-(6-Acetyl-pyridin-2-ylamino)-3-methyl-isoxazol-5-yl]-biphenyl-4-yl}-cyclopropanecarboxylic acid] belongs below 300 nM.
Regarding `Cc1noc(-c2ccc(-c3ccc(C4(C(=O)O)CC4)cc3)cc2)c1Nc1cccc(C(N)=O)n1` [Compound 1-312, 1-{4′-[4-(6-Carbamoyl-pyridin-2-ylamino)-3-methyl-isoxazol-5-yl]-biphenyl-4-yl}-cyclopropanecarboxylic acid], the half-maximal inhibitory concentration (IC50) is below 300 nM.
To `Cc1noc(-c2ccc(-c3ccc(C4(C(=O)O)CC4)cc3)cc2)c1Nc1cccc(Br)n1` [Compound 1-313, 1-{4′-[4-(6-Bromo-pyridin-2-ylamino)-3-methyl-isoxazol-5-yl]-biphenyl-4-yl}-cyclopropanecarboxylic acid] belongs below 300 nM.
With `Cc1noc(-c2ccc(-c3ccc(C4(C(=O)NS(C)(=O)=O)CC4)cc3)cc2)c1[C@@H](COCc1ccccc1)OC(=O)NS(C)(=O)=O` [Compound 2-4, N-Sulfonylmethyl carbamic acid (S)-2-benzyloxy-1-{5-[4′-(1-methanesulfonylaminocarbonyl-cyclopropyl)-biphenyl-4-yl]-3-methyl-isoxazol-4-yl}-ethyl ester], the IC50 is below 300 nM.

These data come from patent publication US9624182B2, “Compounds as lysophosphatidic acid receptor antagonists” (Amira Pharmaceuticals, Inc., priority 2009, dated 2017).
